Test results as given in patent publication US20050101595A1, “N-containing cycloalkyl-substituted amino-thiazole derivatives and pharmaceutical compositions for inhibiting cell proliferation and methods for their use” (PFIZER INC., priority 2003, published 2005).
pIC50, pKi: −log10 of the molar value. Structures can show the parent of a compound that is named as a salt. Where two headings read alike, the source gives them in different places.

Tests used:
CDK2/Cyclin A = CDK2/Cyclin A (Homo sapiens, UniProt P24941); assay: Inhibition of CDK2/Cyclin A Retinoblastoma Kinase Activity; assay type: biochemical; conditions: for pKi: apparent Ki, CDK2/proteolyzed cyclin A, Rb fragment substrate, 25 μM ATP
How it was run: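 CDK2 (10 or 19 nM), insect-cell expressed, gel-filtration purified with truncated cyclin A; Rb fragment substrate; 25 μM ATP; 10 mM HEPES pH 7.4, 10 mM MgCl2; 30° C, 60 or 75 min; EDTA stop; phosphocellulose/nitrocellulose capture, phosphorimager. % inhibition vs DMSO control, no-enzyme background subtracted.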

[1] = target: human CDK4 and genetically truncated (1-264) cyclin D3 (Homo sapiens, UniProt P11802); assay: Inhibition of CDK4/Cyclin D Retinoblastoma Kinase Activity; assay type: biochemical; conditions: for pKi: apparent Ki, CDK4/truncated cyclin D3, Rb fragment substrate, 25 μM ATP
How it was run: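 The enzyme complex (5 nM), expressed in co-infected insect cells, was incubated with recombinant Rb fragment, 25 μM radiolabelled ATP and 2% DMSO at 30 °C. Reactions were stopped with EDTA after 20 minutes, or 60 minutes for tight-binding inhibitors. Apparent Ki values came from competitive inhibition fits.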

HCT-116 cell line = assay: Inhibition of cell growth, tetrazolium salt (MTT) assay; assay type: cell-based; conditions: for pIC50: Homo sapiens, HCT-116, 120 h, MTT, three to five days, read-out: HCT-116 IC50; for HCT-116 % Inhibition at 0.25 μM: 0.25 μM compound
How it was run: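 McCoy's 5A cultures; 4 h pre-incubation; compound dilutions in 0.5% v/v DMSO; 3–5 d, 37° C, 5% CO2; MTT 0.2 mg/mL final, 4 h; formazan dissolved in DMSO, A540; vs 0.5% DMSO vehicle.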

[2] = 0.1 μM compound, HCT-116, Table 3
[3] = 0.1 μM compound, HCT-116, Table 4

Chain of human CDK4 and genetically truncated (1-264) cyclin D3 (P11802 whole entry, the tested form may be a part): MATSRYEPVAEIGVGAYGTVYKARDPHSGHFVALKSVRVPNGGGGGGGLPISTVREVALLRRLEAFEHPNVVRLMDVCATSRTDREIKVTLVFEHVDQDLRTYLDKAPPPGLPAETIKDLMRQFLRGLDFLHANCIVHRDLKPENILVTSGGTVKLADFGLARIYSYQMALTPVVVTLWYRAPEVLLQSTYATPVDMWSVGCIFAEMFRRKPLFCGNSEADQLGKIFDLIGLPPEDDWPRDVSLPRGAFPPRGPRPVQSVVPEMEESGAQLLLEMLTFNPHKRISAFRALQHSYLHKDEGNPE
Chain of human CDK4 and genetically truncated (1-264) cyclin D3 (P30281 1-264 partner): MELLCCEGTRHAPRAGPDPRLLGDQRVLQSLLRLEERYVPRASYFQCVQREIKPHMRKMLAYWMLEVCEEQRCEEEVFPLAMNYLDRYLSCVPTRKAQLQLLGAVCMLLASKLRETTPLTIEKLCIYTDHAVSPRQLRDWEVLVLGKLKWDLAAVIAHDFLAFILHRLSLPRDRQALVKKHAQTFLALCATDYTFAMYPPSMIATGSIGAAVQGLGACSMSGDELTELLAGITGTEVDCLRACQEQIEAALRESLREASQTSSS

CN1CCC(c2ccc(S(=O)(=O)N3CCC(Nc4nc(N)c(C(=O)c5c(F)cccc5F)s4)CC3)cc2)C1 (centres unmarked) [Example F25, 1-(4-Amino-2-[1-[4-(1-methyl-pyrrolidin-3-yl)-benzenesulfonyl]-piperidin-4-ylamino]-thiazol-5-yl}-1-(2,6-difluoro-phenyl)-methanone Dihydrochloride]
pKi (CDK2/Cyclin A): 8.82 | pKi [1]: 9.03 | pIC50 (HCT-116 cell line; first HCT-116 column (c4)): 7.10 | pIC50 (HCT-116 cell line; second HCT-116 column (c5)): 6.52

CCOC(=O)CCCC(=O)N1CCC(Nc2nc(N)c(C(=O)c3c(F)cccc3F)s2)CC1 [Example R3]
CDK2 % Inhibition at 0.03 μM (CDK2/Cyclin A; at 0.03 μM): −6% | CDK4 % Inhibition at 0.03 μM ([1]; at 0.03 μM): 42% | HCT-116 % Inhibition at 0.1 μM (HCT-116 cell line; HCT-116 cells, at 0.1 μM): 8% | HCT-116 5 Inhibition at 0.25 μM (HCT-116 cell line; HCT-116 cells): 37

CS(=O)(=O)c1ccccc1S(=O)(=O)N1CCC(Nc2nc(N)c(C(=O)c3c(F)cccc3F)s2)CC1 [Example P81]
CDK2 % Inhibition at 0.03 μM (CDK2/Cyclin A; 0.03 μM compound, Table 3): −5% | CDK4 % Inhibition at 0.03 μM ([1]; 0.03 μM compound, Table 3): 36% | HCT-116 % Inhibition at 0.1 μM (HCT-116 cell line; [2]): 12% | HCT-116 % Inhibition at 0.25 μM (HCT-116 cell line; HCT-116, Table 3): 19%

N#Cc1ccc(C(=O)N2CCC(Nc3nc(N)c(C(=O)c4c(F)cccc4F)s3)CC2)cc1 [Example Q60]
CDK2 % Inhibition at 0.03 μM (CDK2/Cyclin A; 0.03 μM compound, Table 4): 37% | CDK4 % Inhibition at 0.03 μM ([1]; 0.03 μM compound, Table 4): 67% | HCT-116 % Inhibition at 0.1 μM (HCT-116 cell line; [3]): 0% | HCT-116 % Inhibition at 0.25 μM (HCT-116 cell line; HCT-116, Table 4): 37%

Nc1nc(NC2CCN(S(=O)(=O)c3ccc(CNC(=O)c4ccccc4)s3)CC2)sc1C(=O)c1c(F)cccc1F [Example P40]
CDK2 % Inhibition at 0.03 μM (CDK2/Cyclin A; 0.03 μM compound, Table 3): 61% | CDK4 % Inhibition at 0.03 μM ([1]; 0.03 μM compound, Table 3): 64% | HCT-116 % Inhibition at 0.1 μM (HCT-116 cell line; [2]): 7% | HCT-116 % Inhibition at 0.25 μM (HCT-116 cell line; HCT-116, Table 3): 33%

COc1ccc(O)c(C(=O)N2CCC(Nc3nc(N)c(C(=O)c4c(F)cccc4F)s3)CC2)c1 [Example R121]
CDK2 % Inhibition at 0.03 μM (CDK2/Cyclin A; at 0.03 μM): 57% | CDK4 % Inhibition at 0.03 μM ([1]; at 0.03 μM): 60% | HCT-116 % Inhibition at 0.1 μM (HCT-116 cell line; HCT-116 cells, at 0.1 μM): 0% | HCT-116 5 Inhibition at 0.25 μM (HCT-116 cell line; HCT-116 cells): 37

Nc1nc(NC2CCN(S(=O)(=O)c3cccc(Cl)c3Cl)CC2)sc1C(=O)c1c(F)cccc1F [Example P39]
CDK2 % Inhibition at 0.03 μM (CDK2/Cyclin A; 0.03 μM compound, Table 3): 24% | CDK4 % Inhibition at 0.03 μM ([1]; 0.03 μM compound, Table 3): 42% | HCT-116 % Inhibition at 0.1 μM (HCT-116 cell line; [2]): 0% | HCT-116 % Inhibition at 0.25 μM (HCT-116 cell line; HCT-116, Table 3): 25%

Nc1nc(NC2CCN(C(=O)Oc3ccccc3)CC2)sc1C(=O)c1c(F)cccc1F [Example Q4]
CDK2 % Inhibition at 0.03 μM (CDK2/Cyclin A; 0.03 μM compound, Table 4): 59% | CDK4 % Inhibition at 0.03 μM ([1]; 0.03 μM compound, Table 4): 78% | HCT-116 % Inhibition at 0.1 μM (HCT-116 cell line; [3]): 0% | HCT-116 % Inhibition at 0.25 μM (HCT-116 cell line; HCT-116, Table 4): 41%

Nc1nc(NC2CCN(S(=O)(=O)CCCN3CC=CC3)CC2)sc1C(=O)c1c(F)cccc1F [Example K9, 1-(4-Amino-2-{1-[3-(2,5-dihydropyrrol-1-yl)propane-1-sulfonyl]-piperidin-4-ylamino}-thiazol-5-yl)-1-(2,6-difluoro-phenyl)-methanone.]
pKi (CDK2/Cyclin A): > 8.89 | pKi [1]: 8.80 | pIC50 (HCT-116 cell line; first HCT-116 column (c4)): 7.05 | pIC50 (HCT-116 cell line; second HCT-116 column (c5)): 6.03

Cc1ccc(Sc2ncccc2C(=O)N2CCC(Nc3nc(N)c(C(=O)c4c(F)cccc4F)s3)CC2)cc1 [Example R42]
CDK2 % Inhibition at 0.03 μM (CDK2/Cyclin A; at 0.03 μM): 49% | CDK4 % Inhibition at 0.03 μM ([1]; at 0.03 μM): 53% | HCT-116 % Inhibition at 0.1 μM (HCT-116 cell line; HCT-116 cells, at 0.1 μM): 0% | HCT-116 5 Inhibition at 0.25 μM (HCT-116 cell line; HCT-116 cells): 48

COC(=O)c1ccc(C(=O)N2CCC(Nc3nc(N)c(C(=O)c4c(F)cccc4F)s3)CC2)cc1 [Example C4, 4-{4-[4-Amino-5-(2,6-difluoro-benzoyl)-thiazol-2-ylamino]-piperidine-1-carbonyl}-benzoic Acid Methyl Ester]
pKi (CDK2/Cyclin A): 7.09 | pKi [1]: 7.96 | pIC50 (HCT-116 cell line; first HCT-116 column (c4)): 6.10 | pIC50 (HCT-116 cell line; second HCT-116 column (c5)): 5.70

Nc1nc(NC2CCN(S(=O)(=O)c3ccc(N4CCNCC4)nc3)CC2)sc1C(=O)c1c(F)cccc1F [Example G6, 1-{4-Amino-2-[1-(6-piperazin-1-yl-pyridine-3-sulfonyl)-piperidin-4-ylamino]-thiazol-5-yl}-1-(2,6-difluoro-phenyl)-methanone]
pKi (CDK2/Cyclin A): 9.16 | pKi [1]: 9.27 | pIC50 (HCT-116 cell line; first HCT-116 column (c4)): 6.68 | pIC50 (HCT-116 cell line; second HCT-116 column (c5)): 5.49

Nc1nc(NC2CCN(C(=O)C3CCCCC3)CC2)sc1C(=O)c1c(F)cccc1F [Example Q59]
CDK2 % Inhibition at 0.03 μM (CDK2/Cyclin A; 0.03 μM compound, Table 4): 10% | CDK4 % Inhibition at 0.03 μM ([1]; 0.03 μM compound, Table 4): 14% | HCT-116 % Inhibition at 0.1 μM (HCT-116 cell line; [3]): 0% | HCT-116 % Inhibition at 0.25 μM (HCT-116 cell line; HCT-116, Table 4): 30%

Nc1nc(NC2CCN(S(=O)(=O)c3ccc(Br)cc3)CC2)sc1C(=O)c1c(F)cccc1F [Example P12]
CDK2 % Inhibition at 0.03 μM (CDK2/Cyclin A; 0.03 μM compound, Table 3): 54% | CDK4 % Inhibition at 0.03 μM ([1]; 0.03 μM compound, Table 3): 54% | HCT-116 % Inhibition at 0.1 μM (HCT-116 cell line; [2]): 24% | HCT-116 % Inhibition at 0.25 μM (HCT-116 cell line; HCT-116, Table 3): 29%

Nc1nc(NC2CCN(S(=O)(=O)CCNCc3cccc(F)c3F)CC2)sc1C(=O)c1c(F)cccc1F [Example K45, (4-Amino-2-{1-[2-(2,3-difluoro-benzylamino)-ethanesulfonyl]-piperidin-4-ylamino}-thiazol-5-yl)-(2,6-difluoro-phenyl)-methanone]
pKi (CDK2/Cyclin A): 9.09 | pKi [1]: 9.00 | pIC50 (HCT-116 cell line; first HCT-116 column (c4)): 7.30 | pIC50 (HCT-116 cell line; second HCT-116 column (c5)): 6.77

CCOC(=O)CCNC(=O)N1CCC(Nc2nc(N)c(C(=O)c3c(F)cccc3F)s2)CC1 [Example O73]
CDK2 % Inhibition At 0.03 μM (CDK2/Cyclin A; 0.03 μM compound, Table 2): 29% | CDK4 % Inhibition at 0.03 μM ([1]; 0.03 μM compound, Table 2): 4% | HCT-116 % Inhibition at 0.25 μM (HCT-116 cell line; HCT-116, Table 2): 42%

Nc1nc(NC2CCN(C(=O)c3ccc(OC(F)(F)F)cc3)CC2)sc1C(=O)c1c(F)cccc1F [Example R22]
CDK2 % Inhibition at 0.03 μM (CDK2/Cyclin A; at 0.03 μM): 22% | CDK4 % Inhibition at 0.03 μM ([1]; at 0.03 μM): 58% | HCT-116 % Inhibition at 0.1 μM (HCT-116 cell line; HCT-116 cells, at 0.1 μM): 7% | HCT-116 5 Inhibition at 0.25 μM (HCT-116 cell line; HCT-116 cells): 48

CCC(C(=O)N1CCC(Nc2nc(N)c(C(=O)c3c(F)cccc3F)s2)CC1)c1ccccc1 (centres unmarked) [Example R163]
CDK2 % Inhibition at 0.03 μM (CDK2/Cyclin A; at 0.03 μM): 26% | CDK4 % Inhibition at 0.03 μM ([1]; at 0.03 μM): 28% | HCT-116 % Inhibition at 0.1 μM (HCT-116 cell line; HCT-116 cells, at 0.1 μM): 0% | HCT-116 5 Inhibition at 0.25 μM (HCT-116 cell line; HCT-116 cells): 44

CCC(CC)C(=O)N1CCC(Nc2nc(N)c(C(=O)c3c(F)cccc3F)s2)CC1 [Example R164]
CDK2 % Inhibition at 0.03 μM (CDK2/Cyclin A; at 0.03 μM): 9% | CDK4 % Inhibition at 0.03 μM ([1]; at 0.03 μM): 19% | HCT-116 % Inhibition at 0.1 μM (HCT-116 cell line; HCT-116 cells, at 0.1 μM): 0% | HCT-116 5 Inhibition at 0.25 μM (HCT-116 cell line; HCT-116 cells): 41

COc1ccc(C(=O)N2CCC(Nc3nc(N)c(C(=O)c4c(F)cccc4F)s3)CC2)cc1OC [Example Q21]
CDK2 % Inhibition at 0.03 μM (CDK2/Cyclin A; 0.03 μM compound, Table 4): −23% | CDK4 % Inhibition at 0.03 μM ([1]; 0.03 μM compound, Table 4): 14% | HCT-116 % Inhibition at 0.1 μM (HCT-116 cell line; [3]): 16% | HCT-116 % Inhibition at 0.25 μM (HCT-116 cell line; HCT-116, Table 4): 51%

Nc1nc(NC2CCN(C(=O)Oc3ccc([N+](=O)[O-])cc3)CC2)sc1C(=O)c1c(F)cccc1F [Example Q84]
CDK2 % Inhibition at 0.03 μM (CDK2/Cyclin A; 0.03 μM compound, Table 4): 63% | CDK4 % Inhibition at 0.03 μM ([1]; 0.03 μM compound, Table 4): 88% | HCT-116 % Inhibition at 0.1 μM (HCT-116 cell line; [3]): 3% | HCT-116 % Inhibition at 0.25 μM (HCT-116 cell line; HCT-116, Table 4): 40%
